# Measured values reported in patent US20220009906A1, “ISOINDOLIN-1-ONE DERIVATIVES USEFUL AS GRK2 INHIBITORS” (priority 2020, published 2022).
# Biological target: T1, GRK2 (Homo sapiens, UniProt P25098)
# T1 sequence (P25098 1-689): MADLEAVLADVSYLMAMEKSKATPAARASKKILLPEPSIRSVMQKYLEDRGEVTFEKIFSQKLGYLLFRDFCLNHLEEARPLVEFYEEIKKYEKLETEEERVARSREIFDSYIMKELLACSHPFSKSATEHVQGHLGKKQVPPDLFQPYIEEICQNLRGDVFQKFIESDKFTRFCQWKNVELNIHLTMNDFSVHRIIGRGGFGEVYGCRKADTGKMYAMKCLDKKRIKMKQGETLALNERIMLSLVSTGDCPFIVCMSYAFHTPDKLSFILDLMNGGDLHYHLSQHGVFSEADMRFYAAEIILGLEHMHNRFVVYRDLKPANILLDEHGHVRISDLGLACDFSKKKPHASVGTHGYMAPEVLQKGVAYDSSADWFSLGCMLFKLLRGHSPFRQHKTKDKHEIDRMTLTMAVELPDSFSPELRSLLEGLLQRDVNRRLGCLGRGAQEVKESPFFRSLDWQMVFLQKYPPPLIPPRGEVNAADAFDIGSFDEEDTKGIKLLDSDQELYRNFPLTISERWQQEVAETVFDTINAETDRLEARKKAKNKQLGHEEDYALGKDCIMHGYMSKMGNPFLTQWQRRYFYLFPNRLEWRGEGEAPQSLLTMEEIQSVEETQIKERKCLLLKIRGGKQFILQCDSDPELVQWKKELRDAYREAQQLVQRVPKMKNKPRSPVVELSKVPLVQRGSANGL
# Assay: hGRK2 LANCE Ultra In Vitro Assay
# Type: biochemical
# Details: Biological Example 1 GRK2 Lancer IC50 (μM), 10 nM GRK2; 30 or 600 μM ATP (not stated which); multiple measurements listed individually
# Protocol: hGRK2 LANCE Ultra In Vitro Assay
# G-protein coupled receptor kinases (GR Kinases) desensitize activated G-protein coupled receptors (GPCRs), by phosphorylation of cytoplasmic loops or carboxyl-terminal tails of GPCRs. GRK2 is one of the 6 different GR kinases and is implicated in heart failure and diabetes.
# This assay is sensitive and requires as low as 10 nM enzyme, in a total volume of 10 μL. In addition, the ATP concentration can be varied over a broad range, without interfering with the assay or changing the assay condition. […] Testing inhibitors routinely at both high and low ATP concentrations also enables identification of potential non-ATP competitive inhibitors.
# Paroxetine was used as the reference compound in this assay.
# Test compounds were dissolved in DMSO at 1 mM and were 3-fold serial diluted. The compound DMSO solutions were then added (100 nL) into a plate well using an acoustic dispenser. To each well was then added 20 nM GRK2 (5 μL) in assay buffer (20 mM HEPES, pH 7.5, 10 mM MgCl2, 0.001% Tween-20®). The plate was sealed and centrifuged at 1000 rpm for 1 min. The plate and wells containing a mixture of GRK2 and test compound were incubated at ambient temperature for 30 min (prior to initializing the enzymatic reaction).
# Enzyme reactions were initiated by the addition of 4.9 μL Substrates/Eu-Ab mix to each well. […] Final concentrations of reagents in the assays were as follows: 20 mM HEPES, pH 7.5; 10 mM MgCl2; 0.001% Tween-20® (w/v); 30 or 600 μM ATP; 200 nM ULight-peptide; 4 nM Eu-Ab; 10 nM GRK2; and 1% DMSO.
# The plates were sealed and centrifuged at 1000 rpm for 1 min. For reactions at low ATP concentration (30 μM), reaction mixtures were incubated at ambient temperature for 120 min. For reactions at high ATP concentration (600 μM), reaction mixtures were incubated at ambient temperature for 60 min.
# The enzyme reactions were quenched by addition of 10 μL of 12 mM EDTA in 1× LANCE detection solution to each well. The plates were then incubated at ambient temperature for 30 min. Time-resolved fluorescence signal of reactions were read on an EnVision or PHERAstar plate reader with the following parameters: Excitation wavelength=337 nm; emission wavelength (donor)=620 nm; emission wavelength (acceptor)=665 nm.
# The raw HTRF data were converted to % active as follows:
# % active=(sample−NC)/(PC−NC)*100
# where NC is the mean of negative control (reactions without GRK2), and PC is the mean of positive control (reactions with GRK2 but without inhibitor). IC50 values were determined from a 4-parameter fit, using the following equation:
# Y=Bottom+(Top−Bottom)/(1+10^((Log IC50−X)*Hill slope))
# where X=log10 of the compound concentration.
row,Structure (SMILES),IC50 [µM]
1,"COc1cccc([C@@H](C)N2Cc3c(cc(-c4cn[nH]c4)cc3-c3cccnc3)C2=O)c1 [Compound 124, (R)-2-(1-(3-methoxyphenyl)ethyl)-6-(1H-pyrazol-4-yl)-4-(pyridin-3-yl)isoindolin-1-one]",0.005
2,O=C1c2cc(-c3cn[nH]c3)ccc2CN1Cc1cccc(OC2CCOC2)c1 (stereo not drawn) [Compound 90],0.137
3,"CC(C)Oc1cccc(CN2Cc3ccc(-c4cn[nH]c4)cc3C2=O)c1 [Compound 69, 2-(3-Isopropoxybenzyl)-6-(1H-pyrazol-4-yl)isoindolin-1-one]",0.006
4,"COc1cccc([C@@H](C)N2Cc3c(cc(-c4cn[nH]c4)cc3-c3ccc(C(F)(F)F)nc3)C2=O)c1 [Compound 145, (R)-2-(1-(3-methoxyphenyl)ethyl)-6-(1H-pyrazol-4-yl)-4-(6-(trifluoromethyl)pyridin-3-yl)isoindolin-1-one]",0.285
5,"COc1cccc(CN2C(=O)c3cc(-c4cn[nH]c4)ccc3C23CCCC3C(N)=O)c1 (stereo not drawn) [Compound 111, 2′-(3-methoxybenzyl)-3′-oxo-5′-(1H-pyrazol-4-yl)spiro[cyclopentane-1,1′-isoindoline]-2-carboxamide]",0.007
6,"COc1cccc(CN2C(=O)c3cc(-c4cn[nH]c4)ccc3C2CC(=O)O)c1 (stereo not drawn) [Compound 61, 2-(2-(3-Methoxybenzyl)-3-oxo-5-(1H-pyrazol-4-yl)isoindolin-1-yl)acetic acid]",0.012
7,COc1ccnc(CN2Cc3ccc(-c4cn[nH]c4)cc3C2=O)c1 [Compound 105],0.071
8,"COc1cccc(CN2C(=O)c3cc(-c4cn[nH]c4)ccc3C23CCC(O)C3)c1 (stereo not drawn) [Compound 46, 3-hydroxy-2′-(3-methoxybenzyl)-5′-(1H-pyrazol-4-yl)spiro[cyclopentane-1,1′-isoindolin]-3′-one]",0.007
9,"COc1cccc(C(C(=O)c2ccccc2)N2Cc3ccc(-c4cn[nH]c4)cc3C2=O)c1 (stereo not drawn) [Compound 92, 2-(1-(3-methoxyphenyl)-2-oxo-2-phenylethyl)-6-(1H-pyrazol-4-yl)isoindolin-1-one]",5.01
10,"CCOc1cccc(CN2C(=O)c3cc(-n4cn[nH]c4=O)ccc3C2(C)C)c1 [Compound 45, 2-(3-ethoxybenzyl)-3,3-dimethyl-6-(5-oxo-1,5-dihydro-4H-1,2,4-triazol-4-yl)isoindolin-1-one]",1.62
11,"COc1cccc([C@@H](C)N2C(=O)c3cc(-c4cn[nH]c4)ccc3[C@@H]2CC(=O)O)c1 (single isomer, unassigned) [Compound 97]",0.012
12,"COc1cccc([C@@H](C)N2Cc3c(cc(-c4cn[nH]c4)cc3-c3ccnc(C(C)(C)C)c3)C2=O)c1 [Compound 154, (R)-4-(2-(tert-butyl)pyridin-4-yl)-2-(1-(3-methoxyphenyl)ethyl)-6-(1H-pyrazol-4-yl)isoindolin-1-one]",0.932
13,"COc1cccc([C@@H](C)N2Cc3ccc(-c4cn[nH]c4)c(F)c3C2=O)c1 [Compound 30, 7-fluoro-2-[(1R)-1-(3-methoxyphenyl)ethyl]-6-(1H-pyrazol-4-yl)isoindolin-1-one]",< 0.005
14,COc1cccc(CN2Cc3cc(F)c(-c4ccnc(N)n4)cc3C2=O)c1 [Compound 36],0.241
15,"COc1cccc(CN2C(=O)c3cc(-c4cn[nH]c4)ccc3C23CCC(C(=O)O)C3)c1 (stereo not drawn) [Compound 107, 2′-(3-methoxybenzyl)-3′-oxo-5′-(1H-pyrazol-4-yl)spiro[cyclopentane-1,1′-isoindoline]-3-carboxylic acid]",0.005
16,"COc1cccc(CN2C(=O)c3cc(-c4cn[nH]c4)ccc3C23CCCC3N)c1 (stereo not drawn) [Compound 123, 2-amino-2′-(3-methoxybenzyl)-5′-(1H-pyrazol-4-yl)spiro[cyclopentane-1,1′-isoindolin]-3′-one]",0.015
17,"COc1cccc(CN2C(=O)c3cc(-c4cn[nH]c4)ccc3C23CCC(C(N)=O)C3)c1 (stereo not drawn) [Compound 108, 2′-(3-methoxybenzyl)-3′-oxo-5′-(1H-pyrazol-4-yl)spiro[cyclopentane-1,1′-isoindoline]-3-carboxamide]",0.004

row,Structure (SMILES),IC50 [µM]
1,Cc1ccc(CN2Cc3ccc(-c4cn[nH]c4)cc3C2=O)s1 [Compound 27],0.324
2,"COc1cccc([C@@H](C)N2Cc3c(cc(-c4cn[nH]c4)cc3-c3ccc(OC)nc3)C2=O)c1 [Compound 127, (R)-2-(1-(3-methoxyphenyl)ethyl)-4-(6-methoxypyridin-3-yl)-6-(1H-pyrazol-4-yl)isoindolin-1-one]",0.047
3,"COc1cccc([C@@H](C)N2Cc3c(cc(-c4cn[nH]c4)cc3-c3ccc(O)cc3)C2=O)c1 [Compound 129, (R)-4-(4-hydroxyphenyl)-2-(1-(3-methoxyphenyl)ethyl)-6-(1H-pyrazol-4-yl)isoindolin-1-one]",0.011
4,COc1cccc(C(C(=O)N(C)C)N2Cc3ccc(-c4cn[nH]c4)cc3C2=O)c1 (stereo not drawn) [Compound 168],0.146
5,COC(=O)COc1cccc(CN2Cc3ccc(-c4ccnc5[nH]ccc45)cc3C2=O)c1 [Compound 54],0.292
6,CCOc1cccc([C@H](C(=O)O)N2Cc3ccc(-c4cn[nH]c4)cc3C2=O)c1 [Compound 74],4.2
7,"COc1cccc(C(c2nn[nH]n2)N2Cc3ccc(-c4cn[nH]c4)cc3C2=O)c1 (stereo not drawn) [Compound 94, 2-((3-methoxyphenyl)(2H-tetrazol-5-yl)methyl)-6-(1H-pyrazol-4-yl)isoindolin-1-one]",0.652
8,"COc1cccc(CN2C(=O)c3cc(-c4cn[nH]c4)ccc3C23CCC(O)C3O)c1 (stereo not drawn) [Compound 102, 2,3-dihydroxy-2′-(3-methoxybenzyl)-5′-(1H-pyrazol-4-yl)spiro[cyclopentane-1,1′-isoindolin]-3′-one]",0.006
9,"COc1cccc(C(CO)N2Cc3ccc(-c4cn[nH]c4)cc3C2=O)c1 (single isomer, unassigned) [Compound 172]",0.148
10,"COc1cccc(C(CO)N2Cc3c(cc(-c4cn[nH]c4)cc3-c3ccc(O)cc3)C2=O)c1 (stereo not drawn) [Compound 153, 2-(2-Hydroxy-1-(3-methoxyphenyl)ethyl)-4-(4-hydroxyphenyl)-6-(1H-pyrazol-4-yl)isoindolin-1-one]",0.019
11,"Cc1cnccc1CNC(=O)c1cccc(CN2C(=O)c3cc(-c4cn[nH]c4)ccc3C23CCCC3)c1 [Compound 134, N-((3-methylpyridin-4-yl)methyl)-3-((3′-oxo-5′-(1H-pyrazol-4-yl)spiro[cyclopentane-1,1′-isoindolin]-2′-yl)methyl)benzamide]",0.003
12,CCOc1cccc([C@@H](C)N2Cc3ccc(-c4ccnc5[nH]ccc45)cc3C2=O)c1 [Compound 167],> 20
13,O=C1c2cc(-c3ccncn3)ccc2CN1Cc1cccc(Oc2ccccc2)c1 [Compound 106],0.419
14,"COc1cccc(C(CO)N2Cc3c(cc(-c4cn[nH]c4)cc3-c3ccncc3)C2=O)c1 (stereo not drawn) [Compound 133, 2-(2-Hydroxy-1-(3-methoxyphenyl)ethyl)-6-(1H-pyrazol-4-yl)-4-(pyridin-4-yl)isoindolin-1-one]",0.021
15,"CCOc1cccc(CN2C(=O)c3cc(-c4cn[nH]c4)ccc3C2CC#N)c1 (stereo not drawn) [Compound 65, 2-(2-(3-ethoxybenzyl)-3-oxo-5-(1H-pyrazol-4-yl)isoindolin-1-yl)acetonitrile]",0.039
16,COc1cccc(CN2C(=O)c3cc(-c4ccnc(N)n4)ccc3C2CC#N)c1 (stereo not drawn) [Compound 33],0.098
